# According to ChEMBL document CHEMBL5576132 (J Med Chem, 2024):
# Calls of active or inactive are those of the source. No cut-off for these calls is given here.
# Key:
# [1] = Dose normalized AUC in mouse at 25 mg/kg, iv by HPLC-MS/MS analysis; assay type: ADME, organism-based; conditions: in vivo
# [2] = Clearance in dog assessed as hepatic blood flow at 0.25 mg/kg, iv by HPLC-MS/MS analysis; assay type: ADME, organism-based, Canis lupus familiaris, Liver; conditions: in vivo
# [3] = Dose normalized AUC in mouse at 20 mg/kg, iv by HPLC-MS/MS analysis; assay type: ADME, organism-based; conditions: in vivo
# NCI-H929 [4] = test: Growth inhibition of human NCI-H929 cells measured after 72 to 96 hrs by cell-titer glo assay; assay type: functional; conditions: time 72-96 hrs
# K562 = test: Growth inhibition of human K562 cells measured after 72 to 96 hrs by cell-titer glo assay; assay type: functional; conditions: time 72-96 hrs
# NCI-H1048 [5] = test: Antitumor activity against human NCI-H1048 cells xenografted in BomTac:NMRI-Foxn1nu mouse model assessed as tumor growth inhibition at 60 mg/kg, iv administered daily for 7 days and measured upto 16 days in presence of topotecan relative to control; assay type: functional; conditions: NCI-H1048, 384 h, time <= 16 day, read-out: TGI
# [6] = Dose normalized AUC in mouse at 5 mg/kg, iv by HPLC-MS/MS analysis; assay type: ADME, organism-based; conditions: in vivo
# [7] = Clearance in dog assessed as hepatic blood flow at 0.9 mg/kg, iv by HPLC-MS/MS analysis; assay type: ADME, organism-based, Canis lupus familiaris, Liver; conditions: in vivo
# NCI-H929 [8] = test: Antitumor activity against human NCI-H929 cells xenografted in CB17/Icr-Prkdc(scid)/IcrCrl mouse assessed as disruption of Mcl-1:BIM complex; assay type: functional, cell-based; conditions: time <= 48.0 hrs, TDE = time-dependent effect
# [9] = AUC in CB17/Icr-Prkdc(scid)/IcrCrl mouse at 60 mg/kg, iv administered daily for 7 days and measured upto 21 days in presence of docetaxel; assay type: ADME, organism-based; conditions: in vivo, time < 21 day
# [10] = Plasma protein binding (unknown origin); assay type: ADME, cell-free; conditions: read-out: PPB (converted)
# Cytochrome P450 2C8 = molecular target: T1, Cytochrome P450 2C8 (Homo sapiens, UniProt P10632); test: Inhibition of CYP2C8 (unknown origin); assay type: ADME
# T1 sequence (P10632 whole entry): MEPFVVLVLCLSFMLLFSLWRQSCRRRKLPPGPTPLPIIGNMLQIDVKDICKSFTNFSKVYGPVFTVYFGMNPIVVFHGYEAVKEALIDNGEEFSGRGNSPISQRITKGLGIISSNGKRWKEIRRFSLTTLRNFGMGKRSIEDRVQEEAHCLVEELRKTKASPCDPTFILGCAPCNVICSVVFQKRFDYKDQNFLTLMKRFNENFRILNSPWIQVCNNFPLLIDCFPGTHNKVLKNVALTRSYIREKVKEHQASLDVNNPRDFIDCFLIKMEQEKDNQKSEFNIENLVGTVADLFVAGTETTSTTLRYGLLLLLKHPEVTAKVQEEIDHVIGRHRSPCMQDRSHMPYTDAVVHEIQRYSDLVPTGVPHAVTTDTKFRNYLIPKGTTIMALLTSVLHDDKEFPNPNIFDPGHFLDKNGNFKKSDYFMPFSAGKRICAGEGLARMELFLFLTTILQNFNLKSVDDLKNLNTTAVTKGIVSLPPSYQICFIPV
# A-427 [11] = test: Antiproliferative activity against human A-427 cells at upto 1000 nM measured after 72 to 96 hrs in presence of docetaxel by cell-titer glo assay; assay type: functional, cell-based; conditions: time 72-96 hrs
# [12] = Toxicity in CB17/Icr-Prkdc(scid)/IcrCrl mouse assessed as reduction in tumor area at 60 mg/kg, iv measured after 21 days by H and E staining based analysis; assay type: organism-based; conditions: in vivo, 504 h, time 21 day
# NCI-H929 [13] = test: Antitumor activity against human NCI-H929 cells xenografted in CB17/Icr-Prkdc(scid)/IcrCrl mouse model assessed as increase in […] activity measured upto 48 hrs by glo reagent based analysis; assay type: functional, cell-based
# Cytochrome P450 3A4 [14] = molecular target: T2, Cytochrome P450 3A4 (Homo sapiens, UniProt P08684); test: Inhibition of CYP3A4 (unknown origin); assay type: ADME
# T2 sequence (P08684 whole entry): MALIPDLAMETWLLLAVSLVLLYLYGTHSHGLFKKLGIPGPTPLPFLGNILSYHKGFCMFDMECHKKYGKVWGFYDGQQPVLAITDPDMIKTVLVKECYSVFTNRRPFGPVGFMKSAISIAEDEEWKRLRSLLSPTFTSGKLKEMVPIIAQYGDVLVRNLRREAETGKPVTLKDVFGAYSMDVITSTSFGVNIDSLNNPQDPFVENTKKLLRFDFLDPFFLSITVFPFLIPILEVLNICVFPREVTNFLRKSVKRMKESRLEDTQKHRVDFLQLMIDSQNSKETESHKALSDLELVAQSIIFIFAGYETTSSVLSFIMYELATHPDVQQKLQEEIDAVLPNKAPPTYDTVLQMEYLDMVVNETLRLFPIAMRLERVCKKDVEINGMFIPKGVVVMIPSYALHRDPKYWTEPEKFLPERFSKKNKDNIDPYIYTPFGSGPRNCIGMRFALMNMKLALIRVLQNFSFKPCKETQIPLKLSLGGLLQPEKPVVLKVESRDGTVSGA
# [15] = Toxicity in CB17/Icr-Prkdc(scid)/IcrCrl mouse assessed as reduction in tumor area at 60 mg/kg, iv measured after 21 days in presence of docetaxel by H and E staining based analysis; assay type: organism-based; conditions: in vivo, 504 h, time 21 day
# [16] = Toxicity in CB17/Icr-Prkdc(scid)/IcrCrl mouse assessed as reduction in tumor area at 60 mg/kg, iv measured after 21 days by Ki67 staining based analysis; assay type: organism-based; conditions: in vivo, 504 h, time 21 day
# Cytochrome P450 3A4 [17] = molecular target: T2, Cytochrome P450 3A4; test: Time dependent inhibition of CYP3A4 (unknown origin) relative to control; assay type: ADME
# [18] = Toxicity in CB17/Icr-Prkdc(scid)/IcrCrl mouse assessed as effect on body weight at 60 to 80 mg/kg, iv administered as single dose measured after 15 days; assay type: organism-based; conditions: in vivo, 360 h, dose 60-80 mg/kg, time 15 day
# [19] = Toxicity in CB17/Icr-Prkdc(scid)/IcrCrl mouse assessed as reduction in tumor area at 60 mg/kg, iv measured after 21 days presence of docetaxel by Ki67 staining based analysis; assay type: organism-based; conditions: in vivo, 504 h, time 21 day
# NCI-H1048 [20] = test: Antitumor activity against human NCI-H1048 cells xenografted in BomTac:NMRI-Foxn1nu mouse model assessed as tumor growth regression at 60 mg/kg, iv administered daily for 7 days and measured upto 16 days in presence of topotecan; assay type: functional, organism-based; conditions: time <= 16.0 day
# [21] = Clearance in dog assessed as hepatic blood flow at 0.5 mg/kg, iv by HPLC-MS/MS analysis; assay type: ADME, organism-based, Canis lupus familiaris, Liver; conditions: in vivo
# A-427 [22] = test: Antitumor activity against human A-427 cells xenografted in CB17/Icr-Prkdc(scid)/IcrCrl mouse model assessed as tumor regression at 10 mg/kg, iv administered daily for 7 days and measured upto 21 days; assay type: functional, organism-based; conditions: time <= 21.0 day
# [23] = AUC in CB17/Icr-Prkdc(scid)/IcrCrl mouse at 60 mg/kg, iv administered daily for 7 days and measured upto 21 days in presence of (R)-7-(7-Chloro-10-(3-(4-chloro-3,5-dimethylphenoxy)propyl)-4-methyl-1-oxo-6-(2,4,6-trimethylpyrimidin-5-yl)-3,4-dihydropyrazino[1,2-a]indol-2(1H)-yl)-4-methoxy-1-methyl-5-((tetrahydro-2H-pyran-4-yl)methoxy)-1H-indole-2-carboxylic Acid; assay type: ADME, organism-based; conditions: in vivo, time < 21 day
# [24] = Toxicity in CB17/Icr-Prkdc(scid)/IcrCrl mouse assessed as reduction in tumor area at 10 mg/kg, iv measured after 21 days by H and E staining based analysis; assay type: organism-based; conditions: in vivo, 504 h, time 21 day
# A-427 [25] = test: Antitumor activity against human A-427 cells xenografted in CB17/Icr-Prkdc(scid)/IcrCrl mouse model assessed as tumor regression at 60 mg/kg, iv administered daily for 7 days and measured upto 21 days in presence of docetaxel; assay type: functional, organism-based; conditions: time <= 21.0 day
# [26] = Toxicity in CB17/Icr-Prkdc(scid)/IcrCrl mouse assessed as reduction in tumor area at 10 mg/kg, iv measured after 21 days by Ki67 staining based analysis; assay type: organism-based; conditions: in vivo, 504 h, time 21 day
# [27] = molecular target: Induced myeloid leukemia cell differentiation protein Mcl-1 (Homo sapiens) (UniProt Q07820); conditions: time 3.0 hrs
# Induced myeloid leukemia cell differentiation protein Mcl-1 (Homo sapiens), sequence (Q07820 whole entry): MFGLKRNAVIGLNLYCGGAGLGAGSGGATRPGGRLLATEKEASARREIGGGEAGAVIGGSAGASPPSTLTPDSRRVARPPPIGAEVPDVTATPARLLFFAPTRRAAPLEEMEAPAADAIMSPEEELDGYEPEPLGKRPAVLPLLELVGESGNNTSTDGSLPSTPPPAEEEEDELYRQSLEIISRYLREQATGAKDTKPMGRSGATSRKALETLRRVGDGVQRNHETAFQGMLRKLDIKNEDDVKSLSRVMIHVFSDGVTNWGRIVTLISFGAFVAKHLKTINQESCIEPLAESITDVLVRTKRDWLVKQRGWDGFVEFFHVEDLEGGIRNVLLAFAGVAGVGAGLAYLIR
smiles,measurement,setting,value
COCCOc1cc(N2C[C@@H](C)n3c(c(CCCOc4cc(C)c(Cl)c(C)c4)c4ccc(Cl)c(-c5c(C)nc(C)nc5C)c43)C2=O)c2c(cc(C(=O)O)n2C)c1OC,AUC/dose,[1],334 nM·h/mg/kg
same,QH,[2],50%
COCCOc1cc(N2C[C@@H](C)n3c(c(CCCOc4cc(C)c(Cl)c(C)c4)c4ccc(Cl)c(-c5c(C)ncnc5C)c43)C2=O)c2c(cc(C(=O)O)n2C)c1OC,AUC/dose,[1],380 nM·h/mg/kg
COc1c(OC[C@H]2CCCO2)cc(N2C[C@@H](C)n3c(c(CCCOc4cc(C)c(Cl)c(C)c4)c4ccc(Cl)c(-c5c(C)ncnc5C)c43)C2=O)c2c1cc(C(=O)O)n2C,AUC/dose,[1],1480 nM·h/mg/kg
COc1c(O[C@@H]2CCOC2)cc(N2C[C@@H](C)n3c(c(CCCOc4cc(C)c(Cl)c(C)c4)c4ccc(Cl)c(-c5c(C)nc(C)nc5C)c43)C2=O)c2c1cc(C(=O)O)n2C,AUC/dose,[3],1420 nM·h/mg/kg
same,GI50,NCI-H929 [4],0.026 µM
same,GI50,K562,> 12 µM
CCOc1c(O[C@H]2CCOC2)cc(N2C[C@@H](C)n3c(c(CCCOc4cc(C)c(Cl)c(C)c4)c4ccc(Cl)c(-c5c(C)nc(C)nc5C)c43)C2=O)c2c1cc(C(=O)O)n2C,AUC/dose,[3],2460 nM·h/mg/kg
CC[C@@]1(O)C(=O)OCc2c1cc1n(c2=O)Cc2cc3c(CN(C)C)c(O)ccc3nc2-1 [TOPOTECAN],inhibition in vivo at 60 mg/kg,NCI-H1048 [5],108%
COc1c(O[C@H]2CCOC2)cc(N2C[C@@H](C)n3c(c(CCCOc4cc(C)c(Cl)c(C)c4)c4ccc(Cl)c(-c5c(C)nc(C)nc5C)c43)C2=O)c2c1cc(C(=O)O)n2C,GI50,NCI-H929 [4],0.022 µM
same,GI50,K562,8 µM
same,AUC/dose,[6],1860 nM·h/mg/kg
same,QH,[7],38%
COc1c(OCC2CCOCC2)cc(N2C[C@@H](C)n3c(c(CCCOc4cc(C)c(Cl)c(C)c4)c4ccc(Cl)c(-c5c(C)nc(C)nc5C)c43)C2=O)c2c1cc(C(=O)O)n2C,Activity,NCI-H929 [8],Tde
same,AUC/dose,[1],9000 nM·h/mg/kg
same,AUC at 504 h,[9],0.382 µM·h
same,fraction unbound,[10],0.002
same,IC50,Cytochrome P450 2C8,2.1 µM
same,Activity,A-427 [11],Active
same,Activity,[12],Non-Toxic
same,Activity,NCI-H929 [13],Active
same,IC50,Cytochrome P450 3A4 [14],1.8 µM
same,Activity,[15],Non-Toxic
same,Activity,[16],Non-Toxic
same,TDI,Cytochrome P450 3A4 [17],67%
same,Activity,[18],Non-Toxic
same,Activity,[19],Non-Toxic
same,Activity,NCI-H1048 [20],Active
same,QH,[21],17%
COc1c(OC[C@@H]2CCCO2)cc(N2C[C@@H](C)n3c(c(CCCOc4cc(C)c(Cl)c(C)c4)c4ccc(Cl)c(-c5c(C)nc(C)nc5C)c43)C2=O)c2c1cc(C(=O)O)n2C,AUC/dose,[3],2190 nM·h/mg/kg
same,QH,[7],29%
COc1c(OC[C@H]2CCCO2)cc(N2C[C@@H](C)n3c(c(CCCOc4cc(C)c(Cl)c(C)c4)c4ccc(Cl)c(-c5c(C)nc(C)nc5C)c43)C2=O)c2c1cc(C(=O)O)n2C,AUC/dose,[3],2510 nM·h/mg/kg
CC(=O)O[C@@]12CO[C@@H]1C[C@H](O)[C@@]1(C)C(=O)[C@H](O)C3=C(C)[C@@H](OC(=O)[C@H](O)[C@@H](NC(=O)OC(C)(C)C)c4ccccc4)C[C@@](O)([C@@H](OC(=O)c4ccccc4)[C@H]21)C3(C)C [DOCETAXEL ANHYDROUS],Activity,A-427 [22],Active
same,AUC at 504 h,[23],0.0234 µM·h
same,Activity,[24],Non-Toxic
same,Activity,A-427 [25],Active
same,Activity,[26],Non-Toxic
COc1c(OCC2CCOCC2)cc(N2C[C@@H](C)n3c(c(CCCOc4cc(C)c(Cl)c(C)c4)c4ccc(Cl)c(-c5c(C)ncnc5C)c43)C2=O)c2c1cc(C(=O)O)n2C,AUC/dose,[3],2830 nM·h/mg/kg
CCOc1c(OCC2CCOCC2)cc(N2C[C@@H](C)n3c(c(CCCOc4cc(C)c(Cl)c(C)c4)c4ccc(Cl)c(-c5c(C)nc(C)nc5C)c43)C2=O)c2c1cc(C(=O)O)n2C,AUC/dose,[3],4930 nM·h/mg/kg
Cc1cc(OCCCc2c3n(c4c(-c5c(C)nn(C)c5C)c(Cl)ccc24)[C@H](C)CN(c2cccc4cc(C(=O)O)n(C)c24)C3=O)cc(C)c1Cl,Activity,[27],inactive
